The source of these data is patent US11834434B2, “Substituted 2-heteroaryloxypyridines and salts thereof and their use as herbicidal agents” (Bayer Aktiengesellschaft, priority 2018, dated 2023).

In experiment [1] the test system is Agrostis tenuis (AGSTE). Description: Early post-emergence herbicidal action against Agrostis tenuis. Format: in vivo. Particulars: 1900 g/ha; scored visually 9 to 12 days after treatment vs untreated controls; 100% = plants have died, 0% = like control plants. On the procedure:
(§1) Seeds of monocotyledonous or dicotyledonous weed plants were placed in 96-well microtiter plates in quartz sand and grown in a climatized chamber under controlled growth conditions. 5 to 7 days after sowing, the test plants were treated at the cotyledon stage. The compounds according to the invention, formulated in the form of emulsion concentrates (EC), were applied with a water application rate of the equivalent of 2200 liters per hectare. After the test plants had been left to stand in the climatized chamber for 9 to 12 days under optimum growth conditions, the effect of the preparations was scored visually in comparison to untreated controls. For example, 100% activity=the plants have died, 0% activity=like control plants. Tables A1 to A2 below show the effects of selected compounds of the general formula (I) according to Table 1 on various harmful plants and an application rate corresponding to 1,900 g/ha, which were obtained by the experimental procedure mentioned above.

Experiment [2] concerns Poa annua (POAAN). Description: Early post-emergence herbicidal action against Poa annua. Format: in vivo. As to conditions: 1900 g/ha; scored visually 9 to 12 days after treatment vs untreated controls; 100% = plants have died, 0% = like control plants. On the procedure:
as §1

On to `Cc1cc(C)c(Oc2ncc(Cl)cc2F)c(Oc2ncc(F)cn2)n1` [Example I-591], for which, in experiment [1], the “Early post-emergence action against Agrostis tenuis (AGSTE)” value came out at 100%. The “Early post-emergence action against Poa annua (POAAN)” value in experiment [2] amounted to 100%.
In the case of `Cc1cc(C)c(Oc2ncc(F)cn2)c(Oc2ncc(F)cn2)n1` [Example I-595], the “Early post-emergence action against Agrostis tenuis (AGSTE)” value in experiment [1] was determined as 100%. Also, in experiment [2], the “Early post-emergence action against Poa annua (POAAN)” value worked out at 100%.
